Results published in ChEMBL document CHEMBL1770096, “Structure-activity relationships of trans-substituted-propenoic acid derivatives on the nicotinic acid receptor HCA2 (GPR109A)” (Bioorg Med Chem Lett, 2011).

Molecular target: Hydroxycarboxylic acid receptor 2 (Homo sapiens) (UniProt Q8TDS4)
Assay: Displacement of [3H]nicotinic acid from human GPR109a receptor expressed in human HEK293T cells at 10 uM by liquid scintillation counting
Format: cell-based
Conditions: HEK-293T

Sequence of Hydroxycarboxylic acid receptor 2 (Homo sapiens) (Q8TDS4 whole entry): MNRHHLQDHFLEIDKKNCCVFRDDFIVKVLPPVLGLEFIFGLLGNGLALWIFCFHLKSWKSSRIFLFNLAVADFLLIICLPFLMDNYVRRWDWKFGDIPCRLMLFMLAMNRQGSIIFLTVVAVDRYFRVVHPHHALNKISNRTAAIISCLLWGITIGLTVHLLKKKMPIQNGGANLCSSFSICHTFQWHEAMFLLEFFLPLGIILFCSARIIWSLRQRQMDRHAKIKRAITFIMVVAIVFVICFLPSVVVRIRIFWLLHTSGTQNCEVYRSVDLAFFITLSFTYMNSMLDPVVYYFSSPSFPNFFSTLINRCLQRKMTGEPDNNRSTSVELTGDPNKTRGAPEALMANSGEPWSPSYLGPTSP

SMILES	Activity [%]
COc1cc(/C=C/C(=O)O)ccc1O	0
O=C(O)/C=C/C(=O)O	10
